The text below walks through data of US9943518B2, “Inhibitors of phosphodiesterase type 5A for reducing skeletal muscle fatigue, edema, and damage in a patient having muscle fatigue due to increased age or exercise” (University of Iowa Research Foundation, priority 2008, dated 2018).

One test deals with mdx mice. Put plainly: Exercise-activity assay (mild treadmill exercise, then open-field activity chamber) in mdx mice. In kind it is in vivo, mouse. The settings on record: treatment before mild treadmill exercise.
Test [1] concerns wild-type mice. The conditions noted are these: Miki et al. 2002; cited from earlier work.
Test [2] deals with DGC models of muscular dystrophy. Put plainly: Exercise/activity assay in DGC models of muscular dystrophy. The settings on record: administration prior to exercise. In kind it is in vivo, mouse.
Test [3] has the same test system. Put plainly: Serum creatine kinase following exercise. In kind it is in vivo, mouse. The conditions noted are these: mice subjected to eccentric contractions, 2 hours post-exercise. As for the experimental part:
In the assay, mice are initially placed in an activity cage for thirty minutes, and different activity measurements are measured and monitored during this time frame. The mice are then bled to measure serum creatine kinase (CK) levels and then the mice are injected with Evans Blue Dye. […]. Twenty-four hours later, the mice are then subject to a ten minute exercise protocol on a treadmill with a fifteen degree downhill incline at fifteen meters per minute. Following the exercise protocol, the mice are placed back in the activity cage, and post-exercise activity is measured for thirty minutes. […]
The pharmacological screen utilizes an exercise-activity assay to identify compounds that facilitate NO signaling in muscle having mislocalized nNOS. In the assay, mice are initially placed in an activity cage for thirty minutes to measure pre-exercise activity, and different activity measurements are measured and monitored during this time frame. […] Following the exercise protocol, the mice are placed back in the activity cage, and post-exercise activity is measured for thirty minutes. […]
Serum Creatine Kinase Assays. Blood for quantitative, kinetic determination of serum creatine kinase activity was collected either after the pre-exercise activity analysis or 2 hours post-exercise by mouse tail vein bleeds, using a Sarstedt microvette CB 300, from non-anesthetized restrained mice. […]

Test [4] has the same test system. Nature of the test: Evans Blue Dye uptake in muscle following exercise. In kind it is in vivo, mouse. The settings on record: mice subjected to eccentric contractions.
The next test has as its target PDE5A (Homo sapiens, UniProt O76074). Nature of the test: PDE5A inhibition. In kind it is biochemical. The conditions noted are these: at plasma concentration from 300 mg/kg/day.
The next test deals with nNOS-null mice. Nature of the test: Exercise/activity assay in nNOS-null mice. It is filed as in vivo, mouse. The conditions noted are these: administration prior to exercise.
Test [5] deals with wild-type mice. Put plainly: Exercise-activity assay in wild-type mice. In kind it is in vivo, mouse.
For a further test, the system named is rats. The conditions noted are these: Wang et al. 2001; cited from earlier work.
The next test concerns wild-type and mdx mice. The conditions noted are these: Thomas et al. 1998; cited from earlier work.
Test [6] has as its system dystrophic or nNOS-null mice. Nature of the test: Exercise-activity assay in dystrophic or nNOS-null mice. In kind it is in vivo, mouse.
The next test relates to mammals. The settings on record: Barbato et al. 2005; cited from earlier work.
The test system of a further test is human forearm. The conditions noted are these: local intra-arterial infusion, Seddon et al. 2008; cited from earlier work.
Test [7] deals with wild-type mice. The conditions noted are these: Kinugawa et al. 2005; cited from earlier work.

Entries after “also recorded” stand apart in the source; their conditions may differ.

`CC1(C)CC(O)CC(C)(C)N1[O]` [Tempol]: the “post-exercise activity / exaggerated fatigue response to mild exercise” value with mdx mice is “had no effect on the exaggerated fatigue response”. Regarding `CN1CC(=O)N2[C@H](c3ccc4c(c3)OCO4)c3[nH]c4ccccc4c3C[C@@H]2C1=O` [tadalafil], in the test with mdx mice, the “post-exercise activity / exaggerated fatigue response to mild exercise” value was “very effective at preventing the exercise-induced fatigue”.

Consider `CC(N/C(=N\C#N)Nc1ccncc1)C(C)(C)C` (stereo not shown) [pinacidil], for which the mean arterial pressure result with wild-type mice [1] is reported as “decreases mean arterial pressure”. As for `CC(C)Cc1ccc(C(C)C(=O)O)cc1` (stereo not shown) [ibuprofen], in the test on mdx mice, the “post-exercise activity / exaggerated fatigue response to mild exercise” value is given as “neither treatment resulted in improved post-exercise activity”. On to `CCCc1nn(C)c2c(=O)nc(-c3cc(S(=O)(=O)N4CCN(C)CC4)ccc3OCC)[nH]c12` [sildenafil, 5-[2-ethoxy-5-(4-methylpiperazin-1-yl)sulfonylphenyl]-1-methyl-3-propyl-4H-pyrazolo[5,4-e]pyrimidin-7-one], for which the results for the post-exercise activity entry (in [2]; with nNOS-null mice) were “very effective at preventing the loss of activity following exercise; also recorded: dramatically increased post-exercise activity” and “dramatically increased post-exercise activity”, respectively. The “serum CK following exercise” value in test [3] is recorded as “prevent an increase in serum CK”. In addition, the “post-exercise activity / exaggerated fatigue response to mild exercise” value in the test with mdx mice is listed as “very effective at preventing the exercise-induced fatigue”. The “Evans Blue Dye uptake in muscle following exercise” value in test [4] is “prevent an increase in serum CK and Evans Blue Dye uptake in muscle following exercise”. At PDE5A, the enzyme activity inhibited entry is given as “more than 50%”. As to `CC(=O)OCC(=O)[C@@]12N=C(C)O[C@@H]1C[C@H]1[C@@H]3CCC4=CC(=O)C=C[C@]4(C)[C@H]3[C@@H](O)C[C@@]12C` [deflazacort], in the test on mdx mice, the “post-exercise activity / exaggerated fatigue response to mild exercise” value is reported as “neither treatment resulted in improved post-exercise activity; also recorded: did not ameliorate inactivity post-exercise”. As to `O=[N+]([O-])c1cccc2c(Br)n[nH]c12` [3-bromo-7-nitroindazole], the post-exercise activity entry in the test on wild-type mice [5] is reported as “caused post-exercise inactivity”. As for superoxide dismutase, the “post-exercise activity / exaggerated fatigue response to mild exercise” value in the test with mdx mice is “neither method of SOD exposure had an effect on the exaggerated fatigue response”. Regarding `COC(=O)[C@@H](N)CCCNC(=N)N[N+](=O)[O-]` [L-NAME], the walking speed entry in the test on rats is given as “severely reduces walking speed”. Moreover, the “femoral blood flow velocity and vascular conductance” value in the test with wild-type and mdx mice is “decreases femoral blood flow velocity and vascular conductance”. Besides, the mean arterial pressure result with wild-type and mdx mice is given as “increases mean arterial pressure”. The post-exercise activity entry is reported as “reduced the activity post-exercise even more” in [6] and “reduced post-exercise activity to levels similar to those in nNOS-null mice post-exercise” with wild-type mice [5].

For sarafotoxin 6c, the post-exercise activity result in the test on wild-type mice [5] is “caused post-exercise inactivity”.

For `O=C(NCCO[N+](=O)[O-])c1cccnc1` [nicorandil], the blood pressure result in the test with mammals was “significantly reducing blood pressure in mammals”. For the compound `CNC(=N)NCCC[C@H](N)C(=O)O` [L-NMMA], in the test with human forearm, the resting blood flow entry is listed as “reduces resting blood flow”. For `NC(=NCCC[C@H](N)C(=O)O)N[N+](=O)[O-]` [L-NNA], the “exercise-induced hyperemia and exercise capacity” value with wild-type mice [7] is “prevents adequate exercise-induced hyperemia and limits exercise capacity during exhaustive treadmill running”.
